Settings: for log10 BCF / log10 biotransformation half-life (days): fish

## CCOc1ccccc1C(=O)O
  melting point: 20.7 °C

## [C-]#[N+]c1ccccc1
  log10 vapour pressure (mmHg): 0.381

## Cc1n[nH]c(=S)[nH]c1=O
  melting point: 218 °C

## Oc1cc(Br)cc(Br)c1
  boiling point: 274 °C
  melting point: 81 °C

## CNP(=O)(NC)Oc1ccccc1
  log10 Koc (L/kg): 1.51
  melting point: 102 °C

## C[Si]1(C)O[Si](C)(C)O[Si](C)(C)O[Si](C)(C)O[Si](C)(C)O[Si](C)(C)O[Si](C)(C)O[Si](C)(C)O[Si](C)(C)O1
  log10 vapour pressure (mmHg): -4.75

## CCCC(C)N (centres undefined)
  boiling point: 92 °C

## C[C@]12CC[C@H](O)C[C@@H]1CC[C@@H]1[C@@H]2[C@@H](O)C[C@@]2(C)[C@H]1CC[C@]2(O)C(=O)CO
  melting point: 244 °C

## CC1C2Cc3ccc(O)cc3C1(C)CCN2CC1CC1 (centres undefined)
  melting point: 202 °C

## Cc1nnc2n1-c1sc(Br)cc1C(c1ccccc1Cl)=NC2
  melting point: 213 °C

## O=Cc1ccco1
  boiling point: 162 °C
  log10 vapour pressure (mmHg): 0.344
  melting point: -38.1 °C
  ready biodegradability: readily biodegradable

## N#Cc1c(Cl)cccc1Cl
  boiling point: 270 °C
  log10 Koc (L/kg): 2.5
  log10 vapour pressure (mmHg): -3.18
  melting point: 144 °C

## CC(C)C12CCC(C)(CC1)O2
  boiling point: 174 °C
  log10 vapour pressure (mmHg): 0.286
  melting point: 1 °C

## CC1CCCCC1=O (centres undefined)
  boiling point: 162 °C
  log10 vapour pressure (mmHg): 0.352

## Cc1ccc2nc(-c3ccc(N)cc3)sc2c1
  boiling point: 434 °C
  melting point: 195 °C

## C#C[C@]1(O)CC[C@H]2[C@@H]3CCC4=CCCC[C@@H]4[C@H]3C(=C)C[C@@]21CC
  melting point: 110 °C

## CCCCSC#N
  boiling point: 186 °C

## Cc1cc(Cl)ccc1NC(=S)N(C)C
  melting point: 175 °C

## CCCC(=O)CC
  boiling point: 124 °C
  log10 vapour pressure (mmHg): 1.14
  melting point: -55.5 °C
  ready biodegradability: not readily biodegradable

## COS(C)(=O)=O
  boiling point: 203 °C
  melting point: 20 °C

## CCOc1ccc(NC(=O)OC(C)C)cc1OCC
  log10 vapour pressure (mmHg): -4.2
  melting point: 100 °C

## CCCN(CCC)c1c([N+](=O)[O-])cc(C(C)C)cc1[N+](=O)[O-]
  log10 Koc (L/kg): 4
  log10 vapour pressure (mmHg): -4.52

## O=C(Cc1c(Cl)ccc(Cl)c1Cl)[O][Na]
  log10 Koc (L/kg): 1.72

## CCNc1nc(Cl)nc(NCC)n1
  log10 Koc (L/kg): 2.1
  log10 vapour pressure (mmHg): -7.66
  melting point: 226 °C
  ready biodegradability: not readily biodegradable
  log10 BCF: 0.56
  log10 biotransformation half-life (days): -0.94

## C[C@H](N)[C@H](O)c1cccc(O)c1
  boiling point: 218 °C
  melting point: 108 °C

## CC1(C)OCCO1
  boiling point: 92.5 °C

## CC(=O)OCC1=C(C(=O)O)N2C(=O)[C@@H](NC(=O)Cc3cccs3)[C@H]2SC1
  melting point: 160 °C

## c1ccc(N2CCNCC2)cc1
  boiling point: 286 °C
  log10 vapour pressure (mmHg): -2.26

## Cc1ccccc1CCl
  boiling point: 198 °C

## FC(F)(F)S(F)(F)(F)(F)F
  boiling point: -20 °C
  melting point: -87 °C

## Cc1ccc(O)c(I)c1
  melting point: 35 °C

## CC(=O)Nc1ccc(-c2ccc(N)cc2)cc1
  ready biodegradability: not readily biodegradable

## NC(N)=N/C(N)=N/c1ccccc1
  melting point: 143 °C

## Oc1ccc(C2CCCCC2)cc1
  boiling point: 294 °C
  melting point: 133 °C

## CCOP(=S)(OCC)SCSC(C)(C)C
  log10 Koc (L/kg): 2.82
  log10 vapour pressure (mmHg): -3.49
  melting point: -29.2 °C

## CCC1=CCCC1
  boiling point: 106 °C
  melting point: -118 °C

## CC(=O)Oc1ccc(OC(C)=O)c(OC(C)=O)c1
  boiling point: 300 °C

## CCCC(C)C(O)CC (centres undefined)
  boiling point: 170 °C
  melting point: -123 °C

## CC=CCCCC
  log10 vapour pressure (mmHg): 1.68

## O=C1c2ccccc2C(=O)c2c1cc(O)c(O)c2O
  melting point: 313 °C

## O=c1[nH]cc(N(CCCl)CCCl)c(=O)[nH]1
  log10 Koc (L/kg): 1.46

## COC(=O)CCCCCC(=O)OC
  melting point: -21 °C

## O=[N+]([O-])/N=C1\NCCN1Cc1ccc(Cl)nc1
  melting point: 144 °C

## Cc1ccc(C(=O)NN)cc1
  melting point: 117 °C

## Cc1cccc(-c2ccccc2C)c1
  boiling point: 270 °C

## O=C1c2cc3ccccc3cc2-c2ccc3ccccc3c21
  melting point: 214 °C

## CCC(O)CO[N+](=O)[O-] (centres undefined)
  log10 Henry constant (atm·m³/mol): -6.76

## CNC(=O)c1cccnc1
  melting point: 104 °C

## O=C(CCc1ccccc1)CCc1ccccc1
  boiling point: 352 °C
  melting point: 13.5 °C

## CCCCC(C)(O)CC (centres undefined)
  boiling point: 163 °C
  melting point: -83 °C

## COC(=O)NN
  melting point: 73 °C

## O=C(c1ccccc1)c1ccc(-c2ccccc2)cc1
  boiling point: 420 °C
  melting point: 100 °C

## CC(=O)OCc1ccco1
  boiling point: 179 °C

## Fc1c(F)c(F)c(F)c(F)c1F
  boiling point: 80.2 °C
  log10 vapour pressure (mmHg): 1.93

## C=CCC(C(C)=O)C(=O)OCC (centres undefined)
  boiling point: 208 °C

## C=C(C)C1CC=C(C)C(=O)C1 (centres undefined)
  boiling point: 230 °C

## CCN(C)c1ccccc1
  boiling point: 204 °C

## CC(C(=O)O)c1ccc(-c2ccccc2)c(F)c1 (centres undefined)
  melting point: 110 °C

## C=CCC(=C)C
  boiling point: 56 °C

## CC(C)(C)NCC(O)c1ccc(O)c(CO)c1 (centres undefined)
  melting point: 151 °C

## CC(C)C(C)CCC(C)C1CCC2=C3CCC4CC(O)CCC4(C)C3CCC21C (centres undefined)
  melting point: 131 °C

## C[C@@H]1C[C@H](N(C)C)[C@@H](O)[C@H](O[C@H]2[C@@H](C)C[C@@H](C)C(=O)C=C[C@@H](C)[C@@H]([C@@H](C)O)OC(=O)[C@@H]2C)O1
  melting point: 157 °C

## O=C(C=Cc1ccco1)C=Cc1ccco1
  melting point: 60.5 °C

## CCC(C)Cl (centres undefined)
  boiling point: 68 °C
  log10 Henry constant (atm·m³/mol): -1.62
  log10 vapour pressure (mmHg): 2.19
  melting point: -140 °C

## Cc1cc(O)c(Cl)cc1Cl
  boiling point: 234 °C
  melting point: 73 °C

## ClCc1ccc(Cl)cc1
  boiling point: 223 °C
  melting point: 31 °C

## CC1C(=O)CC2CC1C2(C)C (centres undefined)
  boiling point: 212 °C

## CCCC=C(CCCC)CCCC
  boiling point: 216 °C

## OCCCF
  boiling point: 128 °C

## ClC1CCCC1
  boiling point: 114 °C

## CC(C=O)c1ccccc1 (centres undefined)
  boiling point: 204 °C
  log10 vapour pressure (mmHg): -0.569

## O=C(O)CCc1ccccc1
  boiling point: 280 °C
  log10 vapour pressure (mmHg): -2.57
  melting point: 107 °C

## COC(=O)c1ccncc1
  boiling point: 208 °C
  melting point: 16.1 °C

## Brc1cc(Br)c(Oc2c(Br)c(Br)c(Br)c(Br)c2Br)cc1Br
  log10 BCF: 5.93

## CCc1ccccc1O
  boiling point: 204 °C
  log10 vapour pressure (mmHg): -0.815
  melting point: 18 °C

## COCCOCCOCCOC
  boiling point: 216 °C
  log10 vapour pressure (mmHg): -1.39
  melting point: -45 °C

## O=C(c1ccccc1)N1CCCCC1
  boiling point: 320 °C
  melting point: 49 °C

## CCC=C(C)C=O
  boiling point: 136 °C

## CCc1ccccc1C
  boiling point: 165 °C
  log10 biodegradation half-life (days): 0.602
  log10 vapour pressure (mmHg): 0.417

## O=C(O)c1cccc(-c2ccccc2)c1O
  melting point: 186 °C

## NC(=O)c1c(Cl)cccc1Cl
  log10 Koc (L/kg): 0.53
  melting point: 198 °C
  ready biodegradability: not readily biodegradable

## CC(F)(F)CC(F)(F)F
  boiling point: 40 °C

## CC(=O)CC(=O)Nc1ccccc1Cl
  melting point: 105 °C

## O=C(C1CC1)C1CC1
  boiling point: 161 °C

## N#CN
  log10 vapour pressure (mmHg): -2.43
  melting point: 44 °C

## O=C1CCCCCO1
  boiling point: 215 °C
  log10 vapour pressure (mmHg): -0.87
  melting point: -18 °C
  ready biodegradability: readily biodegradable

## COc1ccccc1OCCNCC(O)COc1cccc2[nH]c3ccccc3c12 (centres undefined)
  melting point: 114 °C

## CC(C)NCC(O)c1ccc([N+](=O)[O-])cc1 (centres undefined)
  melting point: 98 °C

## O=[N+]([O-])c1ccc(F)cc1F
  boiling point: 207 °C
  melting point: 9.8 °C

## Clc1ccccc1-c1nnc(-c2ccccc2Cl)nn1
  log10 Koc (L/kg): 4.66
  log10 vapour pressure (mmHg): -9.01
  melting point: 182 °C

## c1ccc2cc(Nc3ccc(Nc4ccc5ccccc5c4)cc3)ccc2c1
  melting point: 235 °C

## O=C1c2ccccc2-c2ccc3c4ccc5c6c(ccc(c7ccc1c2c73)c64)C(=O)c1ccccc1-5
  melting point: 492 °C

## CCOC(=O)c1cc([N+](=O)[O-])cc([N+](=O)[O-])c1
  log10 Koc (L/kg): 2.74
  melting point: 94 °C

## CC(C)(C)CCC(C)(C)C
  boiling point: 137 °C
  log10 vapour pressure (mmHg): 0.942
  melting point: -12.6 °C

## O=C(/C=C/C=C/c1ccc2c(c1)OCO2)N1CCCCC1
  melting point: 132 °C

## CCC(CC)C(C)(C)C
  boiling point: 134 °C
  log10 vapour pressure (mmHg): 1.05
  melting point: -99.3 °C

## COC(=O)C1(S(=O)(=O)c2ccc(Br)cc2)CCC1
  melting point: 95 °C

## NC1CCC(CC2CCC(N)CC2)CC1 (centres undefined)
  boiling point: 320 °C
  melting point: 15 °C

## BrC(Br)C(Br)(Br)Br
  melting point: 56.5 °C

## Nc1ccc2nccnc2c1
  melting point: 159 °C

## Clc1cc2oc3c(Cl)cc(Cl)c(Cl)c3c2cc1Cl
  log10 vapour pressure (mmHg): -8.82
  melting point: 237 °C

## Cc1cc(C2CC2)nc(Nc2ccccc2)n1
  log10 vapour pressure (mmHg): -5.43
  melting point: 75.9 °C

## CC(C)(C)c1ccc(C(O)CCCN2CCC(C(O)(c3ccccc3)c3ccccc3)CC2)cc1 (centres undefined)
  melting point: 147 °C

## COP(=S)(OC)Oc1ccc(S(C)=O)c(C)c1 (centres undefined)
  log10 BCF: 0.12
  log10 biotransformation half-life (days): -0.38

## CN1[C@@H]2CCC[C@H]1CC2
  boiling point: 166 °C

## O=C(n1ccnc1)n1ccnc1
  melting point: 119 °C

## CC(=O)OC1CC(C)OC(C)O1 (centres undefined)
  ready biodegradability: readily biodegradable

## CC(C)N=C=O
  boiling point: 74.5 °C

## CCC1(CC)C(=O)C=CNC1=O
  melting point: 90.7 °C

## CCCC(=O)C(C)CC (centres undefined)
  boiling point: 154 °C

## Cc1ccc(-c2ccc(C)cc2C)c(C)c1
  boiling point: 287 °C
  melting point: 41 °C

## FC(F)OC(C(F)(F)F)C(F)(F)F
  boiling point: 42.1 °C
  log10 vapour pressure (mmHg): 2.59

## NCC1CCC(C(=O)O)CC1 (centres undefined)
  ready biodegradability: not readily biodegradable

## CCCCCCCCCCCCCCCCCCCC(=O)OC
  melting point: 54.5 °C

## CCc1ccc(CC)c(CC)c1
  boiling point: 218 °C

## CC(C)(C)C(C)(C)C
  boiling point: 106 °C
  log10 vapour pressure (mmHg): 1.32
  melting point: 101 °C

## CCC(C)CO (centres undefined)
  boiling point: 128 °C
  log10 Henry constant (atm·m³/mol): -4.85
  log10 vapour pressure (mmHg): 0.494

## ClC1=C(Cl)[C@]2(Cl)[C@H]3[C@H]([C@@H]4C=C[C@H]3C4)[C@@]1(Cl)C2(Cl)Cl (racemic)
  log10 Henry constant (atm·m³/mol): -4.36
  log10 Koa: 8.08
  log10 Koc (L/kg): 4.69
  log10 vapour pressure (mmHg): -3.92
  log10 BCF: 3.74
  log10 biotransformation half-life (days): 1.37

## CCCCCCCCCCCC(=O)c1ccccc1
  melting point: 47 °C

## COC(C)(C)CC(C)=O
  boiling point: 160 °C
  log10 vapour pressure (mmHg): 0.342
  ready biodegradability: not readily biodegradable

## c1ccc2c(c1)ccc1ccccc12
  boiling point: 340 °C
  log10 Henry constant (atm·m³/mol): -4.37
  log10 Koa: 7.57
  log10 Koc (L/kg): 4.35
  log10 biodegradation half-life (days): 1.62
  log10 vapour pressure (mmHg): -3.92
  melting point: 99.2 °C
  ready biodegradability: readily biodegradable
  log10 BCF: 3.4
  log10 biotransformation half-life (days): 0.7

## CCCC[C@@H](O)CCC
  boiling point: 175 °C
  log10 vapour pressure (mmHg): -0.507

Reference: the OPERA property sets (Mansouri et al. 2018)
